Source: PubChem BioAssay (NCI)
Values joined by “and” are separate entries in the source; they are usually repeats but may differ in a detail not shown here. Equal values may be shown once.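 Values below derive from 48-hour exposures of cells grown in 96-well plates, with endpoints linearly interpolated between the two concentrations bracketing the appropriate inhibition level. GI50 is the concentration that inhibits growth by half. Definition used: TGI = concentration required for complete inhibition of growth.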

Assays:
Assay in all cases: DTP human tumour cell line panel, 48 h
DLD-1 colon = system: DLD-1 colon
HCC-2998 colon = system: HCC-2998 colon
HOP-62 NSCLC = system: HOP-62 NSCLC
LXFL 529 NSCLC = system: LXFL 529 NSCLC
SF-268 CNS = system: SF-268 CNS
SF-539 CNS = system: SF-539 CNS
SN12C renal = system: SN12C renal
SNB-19 CNS = system: SNB-19 CNS
SW-620 colon = system: SW-620 colon
UACC-257 melanoma = system: UACC-257 melanoma

Nc1ccc2n[se]nc2c1
TGI (DLD-1 colon): > 100 µM
TGI (HCC-2998 colon): > 100 µM
TGI (HOP-62 NSCLC): > 100 µM
TGI (LXFL 529 NSCLC): > 100 µM
TGI (SF-268 CNS): > 100 µM
TGI (SF-539 CNS): > 100 µM
TGI (SN12C renal): > 100 µM
TGI (SNB-19 CNS): > 100 µM
TGI (SW-620 colon): > 100 µM
TGI (UACC-257 melanoma): > 100 µM

COC(=O)CCSC(=O)Nc1ccc(N=Nc2ccccc2)cc1
TGI (DLD-1 colon): > 100 µM
TGI (HCC-2998 colon): 59 µM
TGI (HOP-62 NSCLC): > 100 µM
TGI (LXFL 529 NSCLC): > 100 µM
TGI (SF-268 CNS): > 100 µM
TGI (SF-539 CNS): > 100 µM
TGI (SN12C renal): > 100 µM
TGI (SNB-19 CNS): > 100 µM
TGI (SW-620 colon): > 100 µM
TGI (UACC-257 melanoma): > 100 µM

O=[N+]([O-])c1ccc(C2=Nc3ccccc3S(=O)C(c3ccccc3)C2)cc1 (centres undefined)
TGI (DLD-1 colon): 38.4 µM
TGI (HCC-2998 colon): 34.9 µM
TGI (HOP-62 NSCLC): 84.7 µM
TGI (LXFL 529 NSCLC): 26.7 µM
TGI (SF-268 CNS): > 100 µM
TGI (SF-539 CNS): 45 µM
TGI (SN12C renal): 53.7 µM
TGI (SNB-19 CNS): 68 µM
TGI (SW-620 colon): 52.8 µM
TGI (UACC-257 melanoma): 55.3 µM

CCOc1ccccc1N=Nc1ccc2oc(=O)c(C(C)=O)cc2c1
TGI (DLD-1 colon): > 100 µM
TGI (HCC-2998 colon): > 100 µM
TGI (HOP-62 NSCLC): > 100 µM
TGI (LXFL 529 NSCLC): > 100 µM
TGI (SF-268 CNS): > 100 µM
TGI (SF-539 CNS): > 100 µM
TGI (SN12C renal): > 100 µM
TGI (SNB-19 CNS): > 100 µM
TGI (SW-620 colon): > 100 µM
TGI (UACC-257 melanoma): > 100 µM

CC1CC2C3CCC4=CC(=O)C=CC4(C)C3(F)C(O)CC2(C)C1(O)C(=O)COP(=O)(O)O (centres undefined)
TGI (DLD-1 colon): > 100 µM
GI50 (HCC-2998 colon): > 500 µM
TGI (HCC-2998 colon): > 500 µM
GI50 (HOP-62 NSCLC): > 500 µM
TGI (HOP-62 NSCLC): > 500 µM
TGI (LXFL 529 NSCLC): > 100 µM
GI50 (SF-268 CNS): > 500 µM
TGI (SF-268 CNS): > 500 µM
GI50 (SF-539 CNS): > 500 µM
TGI (SF-539 CNS): > 500 µM
GI50 (SN12C renal): > 500 µM
TGI (SN12C renal): > 500 µM
GI50 (SNB-19 CNS): > 500 µM
TGI (SNB-19 CNS): > 500 µM
GI50 (SW-620 colon): > 500 µM
TGI (SW-620 colon): > 500 µM
GI50 (UACC-257 melanoma): > 500 µM
TGI (UACC-257 melanoma): > 500 µM

CC(=O)OCC1OC(n2c(=S)n(-c3ccc([N+](=O)[O-])cc3)c(=O)c3ccccc32)C(OC(C)=O)C(OC(C)=O)C1OC(C)=O (centres undefined)
GI50 (DLD-1 colon): 21.9 µM and 30.4 µM
TGI (DLD-1 colon): > 100 µM
GI50 (HCC-2998 colon): 26.8 µM and 20.8 µM
TGI (HCC-2998 colon): 61.4 µM and 46.6 µM
TGI (HOP-62 NSCLC): 53.7 µM and 54.7 µM
GI50 (LXFL 529 NSCLC): 11.3 µM and 17.4 µM
TGI (LXFL 529 NSCLC): 39.9 µM and 50.6 µM
TGI (SF-268 CNS): 62.1 µM and 44.7 µM
TGI (SF-539 CNS): 36 µM and 29.7 µM
TGI (SN12C renal): 70.1 µM and 44.4 µM
GI50 (SNB-19 CNS): 24.4 µM
TGI (SNB-19 CNS): 47.5 µM and 69.4 µM
GI50 (SW-620 colon): 18 µM and 30.4 µM
TGI (SW-620 colon): > 100 µM
GI50 (UACC-257 melanoma): 13 µM and 28.3 µM
TGI (UACC-257 melanoma): 38.1 µM and 97.3 µM

COC(=O)C(=O)Cc1nc2ccccc2s1
TGI (DLD-1 colon): > 100 µM
TGI (HCC-2998 colon): > 100 µM
TGI (HOP-62 NSCLC): > 100 µM
TGI (LXFL 529 NSCLC): > 100 µM
TGI (SF-268 CNS): > 100 µM
TGI (SF-539 CNS): > 100 µM
TGI (SN12C renal): > 100 µM
TGI (SNB-19 CNS): > 100 µM
TGI (SW-620 colon): > 100 µM
TGI (UACC-257 melanoma): > 100 µM

CC(C)(CN1C(=O)C(Cl)=C(Cl)C1=O)CN1C(=O)C(Cl)=C(Cl)C1=O
TGI (DLD-1 colon): 9.82 µM
TGI (HCC-2998 colon): 39.4 µM
TGI (HOP-62 NSCLC): 45.6 µM
TGI (LXFL 529 NSCLC): 19.7 µM
TGI (SF-268 CNS): 41.5 µM
TGI (SF-539 CNS): 38.8 µM
TGI (SN12C renal): 29.4 µM
TGI (SNB-19 CNS): 55 µM
TGI (SW-620 colon): 15.3 µM
TGI (UACC-257 melanoma): 29 µM

Cc1ccc(NC(=O)CCCC(=O)CC(=O)c2ccc(Br)cc2)cc1
TGI (DLD-1 colon): > 100 µM
TGI (HCC-2998 colon): > 100 µM
TGI (HOP-62 NSCLC): > 100 µM
TGI (LXFL 529 NSCLC): > 100 µM
TGI (SF-268 CNS): > 100 µM
TGI (SF-539 CNS): > 100 µM
TGI (SN12C renal): > 100 µM
TGI (SNB-19 CNS): > 100 µM
TGI (SW-620 colon): > 100 µM
TGI (UACC-257 melanoma): > 100 µM

CC1(C)CCC(Sc2ccccc2)O1 (centres undefined)
TGI (DLD-1 colon): > 100 µM
TGI (HCC-2998 colon): > 100 µM
TGI (HOP-62 NSCLC): > 100 µM
TGI (LXFL 529 NSCLC): > 100 µM
TGI (SF-268 CNS): > 100 µM
TGI (SF-539 CNS): > 100 µM
TGI (SN12C renal): > 100 µM
TGI (SNB-19 CNS): > 100 µM
TGI (SW-620 colon): > 100 µM
TGI (UACC-257 melanoma): > 100 µM

CC(C)/C=C1\CCC(CN(C)C)C1=O (centres undefined)
TGI (DLD-1 colon): 11.2 µM
TGI (HCC-2998 colon): 19.1 µM
TGI (HOP-62 NSCLC): 46.3 µM
TGI (LXFL 529 NSCLC): 2.85 µM
TGI (SF-268 CNS): 38.8 µM
TGI (SF-539 CNS): 19.8 µM
TGI (SN12C renal): 16.3 µM
TGI (SNB-19 CNS): 21.6 µM
TGI (SW-620 colon): 1.55 µM
TGI (UACC-257 melanoma): 10.8 µM
